According to PubChem BioAssay (NCI):
“And” between values parts separate entries of the source, which are not always exact repeats. Equal entries are not always repeated.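 Cells were grown in 96-well plates and exposed to each compound for 48 hours at five concentrations; endpoints were interpolated linearly between bracketing concentrations, or set to the highest concentration if not reached. Abbreviation: GI50, concentration required for 50% inhibition of growth. The concentration for full growth arrest is given as TGI.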

Experiments:
Test in all cases: DTP human tumour cell line panel, 48 h
[1] = test system: HOP-92 NSCLC
[2] = test system: HT29 colon
[3] = test system: IGROV1 ovarian
[4] = test system: K-562 leukemia
[5] = test system: SF-539 CNS
[6] = test system: SK-MEL-5 melanoma
[7] = test system: SNB-75 CNS
[8] = test system: T-47D breast
[9] = test system: DLD-1 colon

Row | Structure (SMILES) | GI50 [1] | TGI [1] | GI50 [2] | TGI [2] | GI50 [3] | TGI [3] | GI50 [4] | TGI [4] | GI50 [5] | TGI [5] | GI50 [6] | TGI [6] | GI50 [7] | TGI [7] | GI50 [8] | TGI [8] | TGI [9] | GI50 [9]
1 | CCCCCCCCCCCCCCCCCC(=O)[O][Sn]([CH2]CCC)([CH2]CCC)[CH2]CCC | 90.8 nM | 273 nM | 113 nM | 311 nM | 154 nM | 367 nM | 142 nM | > 100000 nM | 181 nM | 377 nM | 141 nM | 272 nM | 124 nM | 269 nM | 124 nM | 293 nM |  | 
2 | Clc1ccc(N/N=C/c2ccccn2)nc1 | 608 nM | > 100000 nM | 574 nM | > 100000 nM | 441 nM | > 100000 nM | 383 nM | > 100000 nM | 329 nM | 2460 nM | 423 nM | 2590 nM | 1740 nM | > 45800 nM | 349 nM | > 63500 nM |  | 
3 | NC(Cc1cc(Br)c(O)c(Br)c1)C(=O)O (stereo unspecified) |  | > 100000 nM |  | > 100000 nM |  | > 100000 nM |  | > 100000 nM |  | > 100000 nM |  | > 100000 nM |  | > 100000 nM |  | > 100000 nM |  | 
4 | CCNC(=O)Nc1ccc(-c2nc3c(c(N4CCOC[C@@H]4C)n2)CCN(C2COC2)C3)cc1 | 43 nM and 30.7 nM | 681 nM and 493 nM | 587 nM and 409 nM | > 100000 nM | 115 nM and 71 nM | 5380 nM and 751 nM | 1270 nM and 1100 nM | > 100000 nM | 247 nM and 336 nM | 1850 nM and 3530 nM | 317 nM and 331 nM | 8520 nM and 2560 nM | 104 nM and 73.7 nM | 1130 nM and 1100 nM | 49.8 nM and 31.6 nM | 591 nM and 381 nM |  | 
5 | Clc1ccc(-c2nc(-c3c[nH]c4ncccc34)cs2)cc1 | 27.7 nM | > 100000 nM | > 100000 nM | > 100000 nM | 4780 nM | > 100000 nM | > 100000 nM | > 100000 nM | 35700 nM | > 100000 nM | > 100000 nM | > 100000 nM | > 100000 nM | > 100000 nM | 9410 nM | > 100000 nM |  | 
6 | C[C@H]1O[C@@H](O[C@H]2[C@@H](O)C[C@H](O[C@H]3[C@@H](O)C[C@H](O[C@H]4CC[C@]5(C)C6C[C@@H](O)[C@]7(C)[C@@H](C8=CC(=O)OC8)CC[C@]7(O)C6CC[C@@H]5C4)O[C@@H]3C)O[C@@H]2C)C[C@H](O)[C@@H]1O (stereo partly specified) | 112 nM | 529 nM | 89.3 nM | 293 nM | 145 nM | 3450 nM | 117 nM | 413 nM | 64.8 nM | 139 nM | 47.8 nM | 122 nM | 80 nM | 221 nM | 83.3 nM | 252 nM |  | 
7 | NC(=O)Cc1ccccc1Oc1nccc(-c2c(-c3ccc(F)cc3)ncn2C2CCNCC2)n1 | > 25000 nM | > 25000 nM | > 25000 nM | > 25000 nM | > 25000 nM | > 25000 nM | > 25000 nM | > 25000 nM | > 25000 nM | > 25000 nM | > 25000 nM | > 25000 nM | > 19100 nM | > 25000 nM | > 25000 nM | > 25000 nM |  | 
8 | CCN(CC)CC(O)CNc1ccc(NCC(O)CCl)c2c1C(=O)c1ccccc1C2=O (stereo unspecified) |  | 18200 nM |  | 16500 nM |  | 25500 nM |  | 6450 nM |  | 19100 nM |  | 22100 nM |  | 24900 nM |  | 38700 nM | 38900 nM | 
9 | O=C1C(=O)c2ccccc2C=C1[N+](=O)[O-] |  | > 100000 nM |  | > 100000 nM |  | > 100000 nM |  | > 100000 nM |  | > 100000 nM |  | 46400 nM |  | > 100000 nM |  | > 100000 nM |  | 
10 | [Ce+3].[Cl-].[O-]/N=C(\c1ccccc1)c1ccccn1.[O-]/N=C(\c1ccccc1)c1ccccn1.[O-]/N=C(\c1ccccc1)c1ccccn1 | 25100 nM | > 100000 nM | 72000 nM | > 100000 nM | 39600 nM | > 100000 nM | 36300 nM | > 100000 nM | 31000 nM | 91900 nM | 28800 nM | 85800 nM | 15100 nM | 66000 nM |  |  | > 100000 nM | 40000 nM
11 | O=Cc1ncc(-c2ccc(C(F)(F)F)cc2)c(NC2CCCCCC2)n1 | > 10000 nM | > 10000 nM | > 10000 nM | > 10000 nM | > 10000 nM | > 10000 nM | > 10000 nM | > 10000 nM | > 10000 nM | > 10000 nM | > 10000 nM | > 10000 nM | > 10000 nM | > 10000 nM | > 10000 nM | > 10000 nM |  | 
12 | CCOc1ccc(/C=N/Nc2cc(C)nc3ccc(Cl)cc23)cc1 | 2100 nM | 7080 nM | 1900 nM | 3470 nM | 1930 nM | 3640 nM | 1360 nM | 2980 nM | 1970 nM | 3400 nM | 1720 nM | 3090 nM | 1860 nM | 3640 nM | 1940 nM | 3800 nM |  | 
13 | CCC[CH2][Sn]([CH2]CCC)([O]C(=O)c1cc(OC)c(OC)c(OC)c1)[O]C(=O)c1cc(OC)c(OC)c(OC)c1 |  |  | 1690 nM | 3330 nM | 1320 nM | 2730 nM | 290 nM | 1990 nM | 788 nM | 2120 nM | 1490 nM | 2970 nM | 169 nM | 1290 nM |  |  | 2460 nM | 1210 nM
14 | O=C(c1ccc(F)c(F)c1Nc1ccc(I)cc1F)N1CC(O)([C@H]2CCCCN2)C1 | 406 nM | 2770 nM | 89.4 nM | 10900 nM | 1430 nM | 13900 nM | 3530 nM | 13500 nM | 10200 nM | 22800 nM | 668 nM | 6060 nM | 5960 nM | 20500 nM | 11600 nM | 26000 nM |  | 
15 | C=C1C(=O)O[C@H]2[C@H]1CC/C(COC(=O)NCc1c[nH]c3ccc(OC)cc13)=C\CC[C@@]1(C)O[C@@H]21 | 1790 nM | 3440 nM | 1020 nM | 2710 nM | 2550 nM | 7380 nM | 279 nM | 11200 nM | 1530 nM | 3020 nM | 1380 nM | 2690 nM | 11000 nM | 23500 nM | 1890 nM | 4380 nM |  | 
16 | O=C1OCC2=C1C(c1cccc([N+](=O)[O-])c1)c1cc3c(cc1N2CCO)CCC3 (stereo unspecified) | 2660 nM | > 50000 nM | 176 nM | 21600 nM | 255 nM | > 50000 nM | 66.6 nM | > 50000 nM | 110 nM | 380 nM | 127 nM | 3560 nM | 51.3 nM | 363 nM | 355 nM | > 50000 nM |  | 
